This note sets out measurements from paper PMC7468911 (Nutrients, 2020).

For one test, the target named is T1, ABCC11 (Homo sapiens, UniProt Q96J66).
T1 construct: full-length human ABCC11 WT
T1 sequence (Q96J66 whole entry): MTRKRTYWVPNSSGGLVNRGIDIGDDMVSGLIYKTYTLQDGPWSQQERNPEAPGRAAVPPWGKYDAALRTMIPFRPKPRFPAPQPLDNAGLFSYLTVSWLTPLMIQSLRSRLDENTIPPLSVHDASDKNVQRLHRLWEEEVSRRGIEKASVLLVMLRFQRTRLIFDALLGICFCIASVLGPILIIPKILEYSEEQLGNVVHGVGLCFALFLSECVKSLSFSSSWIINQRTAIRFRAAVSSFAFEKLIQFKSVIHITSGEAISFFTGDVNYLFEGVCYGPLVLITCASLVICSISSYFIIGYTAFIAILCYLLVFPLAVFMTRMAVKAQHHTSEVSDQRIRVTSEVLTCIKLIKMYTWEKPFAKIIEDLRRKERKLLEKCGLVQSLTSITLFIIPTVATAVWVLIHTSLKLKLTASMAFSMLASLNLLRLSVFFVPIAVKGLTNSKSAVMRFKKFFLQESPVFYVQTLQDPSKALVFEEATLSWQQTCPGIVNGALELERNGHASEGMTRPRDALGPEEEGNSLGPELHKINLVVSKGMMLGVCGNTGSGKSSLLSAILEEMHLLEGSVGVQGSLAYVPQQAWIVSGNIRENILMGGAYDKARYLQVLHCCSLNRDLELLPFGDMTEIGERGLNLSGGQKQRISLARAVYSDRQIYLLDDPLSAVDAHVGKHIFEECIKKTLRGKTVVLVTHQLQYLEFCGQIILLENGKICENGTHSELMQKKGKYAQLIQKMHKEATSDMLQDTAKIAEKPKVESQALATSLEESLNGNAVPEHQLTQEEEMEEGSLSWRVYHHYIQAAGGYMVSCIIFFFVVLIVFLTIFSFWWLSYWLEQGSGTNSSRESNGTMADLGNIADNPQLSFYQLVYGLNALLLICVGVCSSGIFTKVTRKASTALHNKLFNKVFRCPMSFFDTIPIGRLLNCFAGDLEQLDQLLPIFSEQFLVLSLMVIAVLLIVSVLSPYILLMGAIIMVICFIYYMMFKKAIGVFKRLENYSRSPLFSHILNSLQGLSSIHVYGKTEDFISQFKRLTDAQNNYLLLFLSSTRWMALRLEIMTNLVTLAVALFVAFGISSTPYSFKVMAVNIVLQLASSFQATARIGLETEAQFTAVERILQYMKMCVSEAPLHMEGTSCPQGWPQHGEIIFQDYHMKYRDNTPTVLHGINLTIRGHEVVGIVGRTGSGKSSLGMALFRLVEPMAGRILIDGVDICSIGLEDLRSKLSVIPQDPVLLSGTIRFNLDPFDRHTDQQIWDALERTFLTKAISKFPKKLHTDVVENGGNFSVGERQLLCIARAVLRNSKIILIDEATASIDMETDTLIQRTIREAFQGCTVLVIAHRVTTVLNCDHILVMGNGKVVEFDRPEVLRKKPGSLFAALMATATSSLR
The experiment in a line: cell-based. The note with it: read-out: ABCC11-Mediated DHEA-S Transport (% of Control).
For `O=C(O[C@@H]1Cc2c(O)cc(O)cc2O[C@H]1c1ccc(O)c(O)c1)c1cc(O)c(O)c(O)c1` [compound 23, (−)-catechin gallate], the remaining activity at 100 µM was 10.5 ± 6%.

`O=c1cc(-c2ccc(O)c(O)c2)oc2cc(O)cc(O)c12` [compound 4, luteolin]: the remaining activity at 100 µM is 0%. With `O=C(CCc1ccc(O)cc1)c1c(O)cc(O)cc1O` [compound 20, phloretin], the remaining activity at 100 µM is 0.6 ± 3.9%. In the case of `COc1ccc(-c2cc(=O)c3c(OC)c(OC)c(OC)c(OC)c3o2)cc1OC` [compound 5, nobiletin], the remaining activity at 100 µM came to 0%. Consider `O=c1c(O)c(-c2ccc(O)c(O)c2)oc2cc(O)c(O)c(O)c12` [compound 16, quercetagetin], for which the remaining activity at 100 µM is 0%.

In the case of `O=C(/C=C/c1ccc(O)cc1)c1c(O)cc(O)cc1O` [compound 19, naringenin chalcone], the remaining activity at 100 µM worked out at 12.4 ± 4.2%.

The next test deals with T1, ABCC11. Nature of the test: biochemical. The settings on record: ABCC11-mediated DHEA-S transport, % of control, 5 min, 37 °C. Also noted: Vesicle transport assay: ATP-dependent uptake of radiolabeled DHEA-S into ABCC11-expressing membrane vesicles, rapid filtration, scintillation counting. From the text: The inhibitory effects of the various target extracts and compounds on the ABCC11 function were examined using the in vitro vesicle transport assay, a well-established method to quantitatively evaluate ABC transporter function. For this purpose, the ATP-dependent transport of [1,2,6,7-^3H(N)]-dehydroepiandrosterone sulfate (DHEA-S) (PerkinElmer, Waltham, MA, USA), which is an ABCC11 substrate, into the ABCC11-expressing and control plasma membrane vesicles was quantified following our previous study with some minor modifications in the rapid filtration technique, as described below. In brief, the plasma membrane vesicles (0.25 mg/mL or indicated concentrations) were incubated with [1,2,6,7-^3H(N)]-DHEA-S (100 nM or indicated concentrations) in a reaction mixture (total 20 μL: 10 mM Tris/HCl, 250 mM sucrose, 10 mM MgCl2, 10 mM creatine phosphate, 1 mg/mL creatine phosphokinase, 50 mM ATP or AMP as a substitute of ATP, and pH 7.4) for 5 min at 37 °C, either without (i.e., with only vehicle control) or with the individual target fractions/authentic chemicals at the indicated concentrations. As the vehicle control, 1% water was used for plant extracts; 1% methanol (Nacalai Tesque) or 1% dimethyl sulfoxide (DMSO; Nacalai Tesque) was used for the individual target fractions, as described below. Since stock solutions of authentic chemicals were prepared with DMSO at 10 mM, 1% DMSO was employed as the vehicle control for them. After incubation, the reaction mixture was mixed with 980 μL of an ice-cold stop buffer (2 mM EDTA, 0.25 M sucrose, 0.1 M NaCl, 10 mM Tris-HCl, and pH 7.4) and rapidly filtered on a membrane filter (MF-Millipore Membrane (HAWP02500; Millipore, Tokyo, Japan) for extract screening or Whatman™ Grade GF/F Glass Microfiber Filter Paper (GE Healthcare) for the other experiments). After washing with 5 mL of the ice-cold stop buffer three times, the plasma membrane vesicles trapped on the membrane filter were dissolved in Clear-sol II (Nacalai Tesque). Then, the radioactivity incorporated into the plasma membrane vesicles was measured with a liquid scintillator (Tri-Carb 3110TR; PerkinElmer). The transport activity in each group was calculated as the incorporated clearance (μL/mg protein/min = incorporated level of DHEA-S (disintegrations per minute (DPM)/mg protein/min)/DHEA-S level in the incubation mixture (DPM/μL)). ATP-dependent DHEA-S transport was calculated by the difference in transport activity with and without ATP. Similarly, ABCC11-mediated DHEA-S transport activity was calculated by subtracting the ATP-dependent DHEA-S transport activity of control plasma membrane vesicles from that of ABCC11-expressing ones. Unless otherwise indicated, effects of the target fractions/compounds on the ATP-dependent DHEA-S transport activity were also examined for the control plasma membrane vesicles.
The compound `O=C1C[C@@H](c2ccc(O)cc2)Oc2cc(O)cc(O)c21` [Naringenin] returned a remaining activity at 100 µM of 38.4 ± 31.6%. The same measure, in the same setting: then `Oc1cc(O)c2c(c1)O[C@H](c1ccc(O)c(O)c1)[C@H](O)C2` [(−)-Epicatechin], with 85.2 ± 24.4%; and `O=C1c2c(O)cc(O)cc2O[C@H](c2cc(O)c(O)c(O)c2)[C@H]1O` [Dihydromyricetin], with 56.9 ± 23.4%. Same read-out and setting: the same measure for `Oc1cc(O)c2c(c1)O[C@H](c1ccc(O)c(O)c1)[C@@H](O)C2` [(+)-Catechin]: 91.9 ± 5.9%; for `O=c1c(O)c(-c2ccc(O)c(O)c2)oc2cc(O)ccc12` [Fisetin]: 37.7 ± 1%; for `O=C(O[C@@H]1Cc2c(O)cc(O)cc2O[C@H]1c1cc(O)c(O)c(O)c1)c1cc(O)c(O)c(O)c1` [(−)-Gallocatechin gallate]: 24 ± 2.5%. `O=c1c(O)c(-c2ccc(O)c(O)c2)oc2c(O)c(O)cc(O)c12` [Gossypetin] came in with a remaining activity at 100 µM of 46 ± 8.4%.

`O=c1c(O)c(-c2ccc(O)c(O)c2)oc2cc(O)cc(O)c12` [Quercetin] yielded a remaining activity at 100 µM of 34.6 ± 18.3%. The compound `O=C(O[C@@H]1Cc2c(O)cc(O)cc2O[C@@H]1c1cc(O)c(O)c(O)c1)c1cc(O)c(O)c(O)c1` [(−)-Epigallocatechin gallate] had a remaining activity at 100 µM of 37.5 ± 7%. `Oc1cc(O)c2c(c1)O[C@H](c1cc(O)c(O)c(O)c1)[C@@H](O)C2` [(+)-Gallocatechin]: the remaining activity at 100 µM came out at 87.6 ± 27.6%. The same measure, in the same setting: then `O=c1c(O)c(-c2ccc(O)cc2)oc2cc(O)cc(O)c12` [Kaempferol], with 42.8 ± 1%. Same read-out and setting: then `O=c1cc(-c2ccc(O)cc2)oc2cc(O)cc(O)c12` [Apigenin], with 25.3 ± 12.5%; and `O=c1c(O)c(-c2ccccc2)oc2ccccc12` [3-Hydroxyflavone], with 91.7 ± 1.1%; and `Oc1cc(O)c2c(c1)O[C@H](c1cc(O)c(O)c(O)c1)[C@H](O)C2` [(−)-Epigallocatechin], with 83.6 ± 29%. Take `O=c1c(O)c(-c2ccc(O)cc2O)oc2cc(O)cc(O)c12` [Morin]: the remaining activity at 100 µM was 41.5 ± 3.4%. Compound `COc1ccc([C@@H]2CC(=O)c3c(O)cc(O)cc3O2)cc1O` [Hesperetin] gave a remaining activity at 100 µM of 5.2 ± 26.9%. In the case of `COc1cc(O)c(CC=C(C)C)c(O)c1C(=O)/C=C/c1ccc(O)cc1` [Xanthohumol], the remaining activity at 100 µM is 19.7 ± 13.6%.

In the case of `O=C1c2c(O)cc(O)cc2O[C@H](c2ccc(O)c(O)c2)[C@H]1O` [Taxifolin], the remaining activity at 100 µM is 43.2 ± 26%. The compound `O=c1c(O)c(-c2ccccc2)oc2cc(O)cc(O)c12` [Galangin] gave a remaining activity at 100 µM of 63.6 ± 5.9%.

As to `COc1cc(O)cc(O)c1C(=O)/C=C/c1ccccc1` [Cardamonin], the remaining activity at 100 µM is 73.4 ± 10.8%.

For another test, the target named is T1, ABCC11. Nature of the test: inhibition of ATP-dependent [3H]-DHEA-S transport in plasma membrane vesicles from ABCC11-expressing […] cells. In kind it is biochemical.
Settings: not given
The compound `O=c1c(-c2ccc(O)cc2)coc2cc(O)cc(O)c12` [genistein] showed a concentration for half-maximal inhibition (IC50) of 61.5 µM.
